Assay results published in PubChem BioAssay (NCI).
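Tested at 5 concentrations; 48 h exposure; 96-well plates; endpoints linearly interpolated, else capped at highest concentration. GI50 = concentration required for 50% inhibition of growth. Definition used: TGI = concentration required for complete inhibition of growth.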

Assays:
Assay in all cases: inhibition of tumour cell growth, NCI panel, 48 h
[1] = tested on: HCT-116 colon
[2] = tested on: HCT-15 colon
[3] = tested on: KM12 colon
[4] = tested on: OVCAR-8 ovarian
[5] = tested on: MOLT-4 leukemia
[6] = tested on: SW-620 colon
[7] = tested on: MDA-MB-468 breast
[8] = tested on: LOX IMVI melanoma
[9] = tested on: T-47D breast
[10] = tested on: NCI-H226 lung
[11] = tested on: COLO 205 colon
[12] = tested on: NCI-H460 lung
[13] = tested on: SR leukemia
[14] = tested on: SK-MEL-5 melanoma
[15] = tested on: OVCAR-5 ovarian
[16] = tested on: MALME-3M melanoma
[17] = tested on: CAKI-1 renal
[18] = tested on: SNB-75 CNS
[19] = tested on: HCC-2998 colon
[20] = tested on: ACHN renal
[21] = tested on: SNB-19 CNS
[22] = tested on: M14 melanoma
[23] = tested on: 786-0 renal
[24] = tested on: TK-10 renal
[25] = tested on: PC-3 prostate
[26] = tested on: OVCAR-4 ovarian
[27] = tested on: SK-OV-3 ovarian
[28] = tested on: SN12C renal
[29] = tested on: CCRF-CEM leukemia
[30] = tested on: SF-295 CNS
[31] = tested on: MDA-MB-231 breast
[32] = tested on: UACC-62 melanoma
[33] = tested on: RPMI-8226 leukemia
[34] = tested on: EKVX NSCLC
[35] = tested on: HS 578T breast
[36] = tested on: HOP-92 NSCLC
[37] = tested on: HT29 colon
[38] = tested on: UACC-257 melanoma
[39] = tested on: MCF7 breast
[40] = tested on: K-562 leukemia
[41] = tested on: SF-539 CNS
[42] = tested on: A549 NSCLC
[43] = tested on: IGROV1 ovarian
[44] = tested on: U251 CNS
[45] = tested on: RXF 393 renal
[46] = tested on: SK-MEL-28 melanoma
[47] = tested on: BT-549 breast
[48] = tested on: A498 renal
[49] = tested on: NCI-H522 lung
[50] = tested on: SK-MEL-2 melanoma
[51] = tested on: UO-31 renal
[52] = tested on: OVCAR-3 ovarian
[53] = tested on: HL-60(TB) leukemia
[54] = tested on: SF-268 CNS
[55] = tested on: MDA-MB-435
[56] = tested on: HOP-62 NSCLC
[57] = tested on: NCI-H23 lung
[58] = tested on: DU-145 prostate

CN1CCN(c2ccc(C(=O)/C=C/c3cc(Br)ccc3F)cc2)CC1
GI50 [1]: 1.79 µM
TGI [1]: 3.93 µM
GI50 [2]: 3.43 µM
TGI [2]: 14.7 µM
GI50 [3]: 2.69 µM
TGI [3]: 9.23 µM
GI50 [4]: 13.2 µM
TGI [4]: 26 µM
GI50 [5]: 3.69 µM
TGI [5]: 16.8 µM
GI50 [6]: 3.52 µM
TGI [6]: 14.2 µM
GI50 [7]: 2.51 µM
TGI [7]: 9.77 µM
GI50 [8]: 3.2 µM
TGI [8]: 12.5 µM
GI50 [9]: 15 µM
TGI [9]: 47.3 µM
GI50 [10]: 12.7 µM
TGI [10]: 27.3 µM
GI50 [11]: 11.8 µM
TGI [11]: 30.1 µM
GI50 [12]: 15.6 µM
TGI [12]: 31.1 µM
GI50 [13]: 2.58 µM
TGI [13]: 10.7 µM
GI50 [14]: 12.9 µM
TGI [14]: 25.7 µM
GI50 [15]: 18.6 µM
TGI [15]: 35.9 µM
GI50 [16]: 15.3 µM
TGI [16]: 29.4 µM
GI50 [17]: 12.1 µM
TGI [17]: 24.6 µM
GI50 [18]: 3.25 µM
TGI [18]: 16.6 µM
GI50 [19]: 2.76 µM
TGI [19]: 7.91 µM
GI50 [20]: 13.4 µM
TGI [20]: 29.5 µM
GI50 [21]: 15.1 µM
TGI [21]: 29.5 µM
GI50 [22]: 6.38 µM
TGI [22]: 19.7 µM
GI50 [23]: 10 µM
TGI [23]: 22.4 µM
GI50 [24]: 15 µM
TGI [24]: 28.3 µM
GI50 [25]: 6.24 µM
TGI [25]: 21.3 µM
GI50 [26]: 11.3 µM
TGI [26]: 23.9 µM
GI50 [27]: 14.7 µM
TGI [27]: 28.6 µM
GI50 [28]: 11.2 µM
TGI [28]: 27.2 µM
GI50 [29]: 3.44 µM
TGI [29]: 15.6 µM
GI50 [30]: 15.2 µM
TGI [30]: 28.7 µM
GI50 [31]: 13.2 µM
TGI [31]: 30 µM
GI50 [32]: 15.1 µM
TGI [32]: 29.9 µM
GI50 [33]: 1.84 µM
TGI [33]: 6.07 µM
GI50 [34]: 13.3 µM
TGI [34]: 26.4 µM
GI50 [35]: 13.3 µM
TGI [35]: 38.8 µM
GI50 [36]: 6.71 µM
TGI [36]: 21.9 µM
GI50 [37]: 2.87 µM
TGI [37]: 10.9 µM
GI50 [38]: 15.5 µM
TGI [38]: 29.5 µM
GI50 [39]: 2.67 µM
TGI [39]: 11.5 µM
GI50 [40]: 2.28 µM
TGI [40]: 11.8 µM
GI50 [41]: 7.05 µM
TGI [41]: 21.7 µM
GI50 [42]: 4.38 µM
TGI [42]: 16.5 µM
GI50 [43]: 12.8 µM
TGI [43]: 26.6 µM
GI50 [44]: 5.91 µM
TGI [44]: 18.9 µM
GI50 [45]: 1.27 µM
TGI [45]: 13.7 µM
GI50 [46]: 19.7 µM
TGI [46]: 36.2 µM
GI50 [47]: 3.58 µM
TGI [47]: 12.2 µM
GI50 [48]: 17 µM
TGI [48]: 31.7 µM
GI50 [49]: 13.5 µM
TGI [49]: 27.1 µM
GI50 [50]: 14.5 µM
TGI [50]: 27.6 µM
GI50 [51]: 8.55 µM
TGI [51]: 21.5 µM
GI50 [52]: 5.81 µM
TGI [52]: 18.2 µM
GI50 [53]: 2.77 µM
TGI [53]: 14.5 µM
GI50 [54]: 15.1 µM
TGI [54]: 31.6 µM
GI50 [55]: 3.78 µM
TGI [55]: 13.5 µM
GI50 [56]: 16.2 µM
TGI [56]: 31.5 µM
GI50 [57]: 13.5 µM
TGI [57]: 27.3 µM
GI50 [58]: 11.1 µM
TGI [58]: 23 µM
